Where two headings read alike, the source gives them in different places.
What was measured:
Jurkat E6-1 cells = assay: Cytotoxicity towards Jurkat lymphocytes; type: cell-based
native PKCβI = native PKCβI (Mus musculus, UniProt P68404); assay: cell-based; type: binding
native PKCγ = native PKCγ (Mus musculus, UniProt P63318); assay: cell-based; type: binding
native PKCδ = native PKCδ (Mus musculus, UniProt P28867); assay: cell-based; type: binding
native PKCε = molecular target: T1, native PKCε (Mus musculus, UniProt P16054); assay: cell-based; type: binding
T1 sequence (P16054 1-737): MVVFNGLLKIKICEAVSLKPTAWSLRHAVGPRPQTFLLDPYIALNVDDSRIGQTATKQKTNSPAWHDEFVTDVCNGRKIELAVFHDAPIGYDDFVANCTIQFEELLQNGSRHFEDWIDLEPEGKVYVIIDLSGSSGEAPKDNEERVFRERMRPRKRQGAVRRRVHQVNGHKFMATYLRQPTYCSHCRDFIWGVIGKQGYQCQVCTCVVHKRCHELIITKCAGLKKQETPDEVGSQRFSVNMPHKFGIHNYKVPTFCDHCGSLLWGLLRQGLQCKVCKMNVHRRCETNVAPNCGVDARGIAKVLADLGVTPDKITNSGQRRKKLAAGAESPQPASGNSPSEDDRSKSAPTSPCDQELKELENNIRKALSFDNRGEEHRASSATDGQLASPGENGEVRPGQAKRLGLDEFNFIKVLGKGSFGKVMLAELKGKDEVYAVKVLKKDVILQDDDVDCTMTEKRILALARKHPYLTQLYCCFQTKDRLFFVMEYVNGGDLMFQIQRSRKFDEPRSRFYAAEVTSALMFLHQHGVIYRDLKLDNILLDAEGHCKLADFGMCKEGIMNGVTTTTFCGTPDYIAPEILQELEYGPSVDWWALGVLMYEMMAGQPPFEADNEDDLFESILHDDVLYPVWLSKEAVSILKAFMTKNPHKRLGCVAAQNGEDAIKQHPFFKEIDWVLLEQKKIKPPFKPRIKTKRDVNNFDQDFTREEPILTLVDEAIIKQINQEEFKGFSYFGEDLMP

native PKCζ = molecular target: T2, native PKCζ (Mus musculus, UniProt Q02956); type: binding
T2 sequence (Q02956 1-592): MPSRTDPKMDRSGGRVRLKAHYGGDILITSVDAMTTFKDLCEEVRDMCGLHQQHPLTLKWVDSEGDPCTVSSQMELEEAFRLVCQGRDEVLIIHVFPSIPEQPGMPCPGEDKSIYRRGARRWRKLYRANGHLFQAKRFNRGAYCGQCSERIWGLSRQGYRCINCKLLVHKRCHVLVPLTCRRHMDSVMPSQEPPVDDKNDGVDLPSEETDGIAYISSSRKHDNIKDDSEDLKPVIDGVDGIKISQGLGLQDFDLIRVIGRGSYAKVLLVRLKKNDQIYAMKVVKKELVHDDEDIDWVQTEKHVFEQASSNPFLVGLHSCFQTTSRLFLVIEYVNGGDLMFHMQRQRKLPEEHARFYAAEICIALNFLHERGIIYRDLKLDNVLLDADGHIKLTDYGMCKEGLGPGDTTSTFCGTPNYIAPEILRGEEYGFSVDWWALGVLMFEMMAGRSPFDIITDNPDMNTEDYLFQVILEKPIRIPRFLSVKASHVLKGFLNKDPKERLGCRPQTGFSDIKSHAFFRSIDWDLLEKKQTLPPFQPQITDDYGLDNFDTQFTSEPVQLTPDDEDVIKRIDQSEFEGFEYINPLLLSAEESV

native PKCη = native PKCη (Mus musculus, UniProt P23298); assay: cell-based; type: binding
native PKCθ = native PKCθ (Mus musculus, UniProt Q02111); assay: cell-based; type: binding
PKCγ = settings: read-out: Previously reported biochemical Ki values, Bryostatin 1, [3H]PDBu at 4 °C; cited from earlier work
PKCζ = settings: [3H]PDBu at 4 °C; cited from earlier work
PKCη = settings: read-out: Previously reported biochemical Ki values, Bryostatin 1, [3H]PDBu at 4 °C; cited from earlier work
PKCθ = settings: read-out: Previously reported biochemical Ki values, Bryostatin 1, [3H]PDBu at 4 °C; cited from earlier work
native PKCα = native PKCα (Mus musculus, UniProt P20444); assay: cell-based
PKCα = settings: read-out: Previously reported biochemical Ki values, Bryostatin 1, [3H]PDBu at 4 °C; cited from earlier work
PKCβI = settings: read-out: Previously reported biochemical Ki values, Bryostatin 1, [3H]PDBu at 4 °C; cited from earlier work
PKCε = settings: read-out: Previously reported biochemical Ki values, Bryostatin 1, [3H]PDBu at 4 °C; cited from earlier work
HEK293T cells = assay: Cytotoxicity towards HEK293T cells; type: cell-based; settings: treatment for 48 h at concentrations of ≤ 10 μM
PKCδ = settings: read-out: Previously reported biochemical Ki values, PDBu; cited from earlier work
[1] = read-out: Cellular Ki values for native PKCs

native PKCδ, sequence (P28867 whole entry): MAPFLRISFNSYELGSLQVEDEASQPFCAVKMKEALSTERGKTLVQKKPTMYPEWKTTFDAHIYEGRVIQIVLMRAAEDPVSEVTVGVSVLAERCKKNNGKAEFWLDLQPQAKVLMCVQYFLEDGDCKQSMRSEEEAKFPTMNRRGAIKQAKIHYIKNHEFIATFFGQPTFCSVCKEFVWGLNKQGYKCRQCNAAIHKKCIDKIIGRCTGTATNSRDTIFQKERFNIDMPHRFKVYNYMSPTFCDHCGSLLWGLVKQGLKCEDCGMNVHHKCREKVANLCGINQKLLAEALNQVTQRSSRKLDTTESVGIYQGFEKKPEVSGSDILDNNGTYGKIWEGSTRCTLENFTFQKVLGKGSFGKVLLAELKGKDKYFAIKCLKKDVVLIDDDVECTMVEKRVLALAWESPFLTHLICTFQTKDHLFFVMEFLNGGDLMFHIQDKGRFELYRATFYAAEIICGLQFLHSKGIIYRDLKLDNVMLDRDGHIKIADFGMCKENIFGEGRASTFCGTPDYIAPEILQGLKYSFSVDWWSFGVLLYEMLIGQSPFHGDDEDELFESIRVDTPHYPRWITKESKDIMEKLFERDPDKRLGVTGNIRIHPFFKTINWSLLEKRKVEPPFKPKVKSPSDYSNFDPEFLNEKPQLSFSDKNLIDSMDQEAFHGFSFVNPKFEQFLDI
native PKCβI, sequence (P68404 whole entry): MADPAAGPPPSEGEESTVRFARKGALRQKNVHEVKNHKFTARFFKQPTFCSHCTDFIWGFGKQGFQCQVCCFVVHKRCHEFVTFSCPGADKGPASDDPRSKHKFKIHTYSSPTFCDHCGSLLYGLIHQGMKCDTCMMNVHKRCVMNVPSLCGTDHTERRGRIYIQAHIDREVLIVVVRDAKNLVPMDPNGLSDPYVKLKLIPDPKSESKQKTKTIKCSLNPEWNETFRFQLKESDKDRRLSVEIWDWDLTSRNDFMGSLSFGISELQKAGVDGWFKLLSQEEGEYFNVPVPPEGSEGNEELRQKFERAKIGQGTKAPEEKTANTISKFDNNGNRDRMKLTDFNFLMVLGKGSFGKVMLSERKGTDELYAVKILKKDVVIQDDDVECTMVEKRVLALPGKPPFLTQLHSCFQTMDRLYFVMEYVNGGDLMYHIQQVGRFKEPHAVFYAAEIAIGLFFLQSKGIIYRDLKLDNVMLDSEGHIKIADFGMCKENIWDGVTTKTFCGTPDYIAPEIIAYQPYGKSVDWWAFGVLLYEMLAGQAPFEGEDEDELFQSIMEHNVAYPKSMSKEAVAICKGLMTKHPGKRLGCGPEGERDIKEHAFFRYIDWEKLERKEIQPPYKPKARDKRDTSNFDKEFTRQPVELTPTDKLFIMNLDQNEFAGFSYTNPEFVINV
native PKCθ, sequence (Q02111 whole entry): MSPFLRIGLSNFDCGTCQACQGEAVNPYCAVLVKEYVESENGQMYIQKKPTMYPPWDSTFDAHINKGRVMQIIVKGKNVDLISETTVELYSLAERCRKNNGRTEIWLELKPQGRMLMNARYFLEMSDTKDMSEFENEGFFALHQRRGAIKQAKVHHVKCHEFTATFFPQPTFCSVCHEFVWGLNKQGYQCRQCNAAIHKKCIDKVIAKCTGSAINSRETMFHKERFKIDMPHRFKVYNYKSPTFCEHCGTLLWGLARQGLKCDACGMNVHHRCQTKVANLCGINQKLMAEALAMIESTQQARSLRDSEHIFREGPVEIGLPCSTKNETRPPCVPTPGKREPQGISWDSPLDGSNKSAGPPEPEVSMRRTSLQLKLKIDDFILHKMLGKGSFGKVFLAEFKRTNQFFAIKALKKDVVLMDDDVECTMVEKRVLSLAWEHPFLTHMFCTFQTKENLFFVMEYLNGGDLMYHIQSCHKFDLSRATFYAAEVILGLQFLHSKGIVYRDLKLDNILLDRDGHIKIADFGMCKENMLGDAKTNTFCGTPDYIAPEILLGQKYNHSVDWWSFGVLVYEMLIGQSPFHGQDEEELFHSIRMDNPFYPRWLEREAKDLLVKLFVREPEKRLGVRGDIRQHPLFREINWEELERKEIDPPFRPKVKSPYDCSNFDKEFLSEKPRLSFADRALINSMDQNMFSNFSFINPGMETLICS
native PKCη, sequence (P23298 whole entry): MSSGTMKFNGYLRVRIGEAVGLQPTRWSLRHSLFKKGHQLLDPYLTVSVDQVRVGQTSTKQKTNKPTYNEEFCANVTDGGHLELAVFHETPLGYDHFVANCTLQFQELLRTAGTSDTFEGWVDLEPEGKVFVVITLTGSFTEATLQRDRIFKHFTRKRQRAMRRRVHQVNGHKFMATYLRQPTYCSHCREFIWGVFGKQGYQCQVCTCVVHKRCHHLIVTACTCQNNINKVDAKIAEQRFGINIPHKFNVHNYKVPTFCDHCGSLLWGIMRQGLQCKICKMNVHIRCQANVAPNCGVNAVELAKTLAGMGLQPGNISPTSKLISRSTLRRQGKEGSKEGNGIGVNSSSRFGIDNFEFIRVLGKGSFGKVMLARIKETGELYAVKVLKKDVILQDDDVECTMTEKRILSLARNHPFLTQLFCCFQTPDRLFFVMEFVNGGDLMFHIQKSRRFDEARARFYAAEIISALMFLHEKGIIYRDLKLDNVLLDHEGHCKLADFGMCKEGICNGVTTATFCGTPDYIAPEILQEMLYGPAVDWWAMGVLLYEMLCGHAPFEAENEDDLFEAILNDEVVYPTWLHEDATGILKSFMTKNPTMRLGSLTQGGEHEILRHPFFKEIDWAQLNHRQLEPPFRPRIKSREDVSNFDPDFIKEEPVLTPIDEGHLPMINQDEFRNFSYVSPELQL

CN(C)CCCn1cc(C2=C(c3c[nH]c4ccccc34)C(=O)NC2=O)c2ccccc21 [BIM1, bisindolylmaleimide I]
effect of BIM1 on cytotoxicity of probes 1–3 towards Jurkat lymphocytes (Jurkat E6-1 cells): reduced or eliminated
effect of BIM1 on toxicity of PDBu towards Jurkat lymphocytes (Jurkat E6-1 cells; BIM1 2 μM): completely blocked

CCC/C=C/C=C/C(=O)O[C@H]1/C(=C/C(=O)OC)C[C@H]2C[C@H]([C@@H](C)O)OC(=O)C[C@H](O)C[C@@H]3C[C@H](OC(C)=O)C(C)(C)[C@](O)(C[C@@H]4C/C(=C/C(=O)OC)C[C@H](/C=C/C(C)(C)[C@]1(O)O2)O4)O3 [bryostatin 1]
Ki (native PKCβI): 2 nM
Ki (native PKCγ): 2 nM
Ki (native PKCδ): 17 nM
lower affinity for PKCδ in cells than in biochemical assays (native PKCδ; cellular Ki versus previously reported biochemical Ki): 8 fold
Ki (native PKCε): 11 nM
Cellular Ki values for native PKCs (native PKCζ; PKCζ, competition with probe 1, BIM1 2 μM, 2 h 37 °C): No binding
Ki (native PKCη): 5 nM
Ki (native PKCθ): 8 nM
Previously reported biochemical Ki values, Bryostatin 1 (PKCζ): No binding
Ki (native PKCα): 4 nM

CCCC(=O)O[C@@H]1[C@@H](C)[C@@]2(O)[C@@H](C=C(CO)C[C@]3(O)C(=O)C(C)=C[C@@H]23)[C@@H]2C(C)(C)[C@]12OC(=O)CCC [PDBu, phorbol 12, 13-dibutyrate]
fluctuation in measured cellular IC50 and Ki values (native PKCβI): less than 3 fold
Ki (native PKCβI; [1]): 15 nM
Ki (native PKCγ; [1]): 18 nM
lower affinity for PKCδ in cells than in biochemical assays (native PKCδ): 10 fold
Ki (native PKCδ; [1]): 45 nM
Ki (native PKCε; [1]): 43 nM
Cellular Ki values for native PKCs (native PKCζ): No binding
Ki (native PKCη; [1]): 27 nM
Ki (native PKCθ; [1]): 49 nM
cytotoxicity towards HEK293T cells (HEK293T cells): non-toxic
IC50 (Jurkat E6-1 cells; read-out: cytotoxic potency towards Jurkat lymphocytes, IC50): 2 nM
